In brackets after ≈: the same amount, converted by molar mass. Entries after “also recorded” stand apart in the source; their conditions may differ. Where two headings read alike, the source gives them in different places.
What was measured:
EthA [1] = biological target: T1, EthA (Mycobacterium tuberculosis, UniProt P9WNF9); conditions: cited from earlier work; for Km: read-out: Km (EthA substrate)
M. tuberculosis H37Rv [2] = assay: microbe, parasite or virus in culture; type: cell-based
EthA [3] = biological target: T1, EthA; type: biochemical, M. tuberculosis
wild-type PyrG = wild-type PyrG (Mycobacterium tuberculosis, UniProt P9WHK7); type: biochemical, M. tuberculosis; design: % inhibition of wild-type PyrG: dose or concentration left out as unconfirmed
M. tuberculosis H37Ra = assay: MIC against M. tuberculosis H37Ra; type: cell-based, Mycobacterium tuberculosis
[4] = system: non-replicating M. tuberculosis ss18b; assay: microbe, parasite or virus in culture; type: cell-based; conditions: Mycobacterium tuberculosis
[5] = system: intracellular M. tuberculosis H37Rv; assay: microbe, parasite or virus in culture; type: cell-based; conditions: Mycobacterium tuberculosis; for IC50: read-out: Intracellular IC50; for IC90: read-out: Intracellular IC90
PyrG = PyrG (Mycobacterium tuberculosis, UniProt P9WHK7); type: biochemical, M. tuberculosis
M. tuberculosis H37Rv [6] = type: cell-based, Mycobacterium tuberculosis
HepG2 = conditions: HepG2, at concentrations below 40 μg/ml
A549 = conditions: A549, at concentrations below 40 μg/ml
RAW 264.7 = conditions: at concentrations below 40 μg/ml
Huh7 = conditions: Huh7, at concentrations below 40 μg/ml
[7] = Mycobacterium tuberculosis, H37RV, Figure 5, H37Rv, read-out: MIC
[8] = Mycobacterium tuberculosis, H37RV, Table S4, H37Rv, read-out: MIC
[9] = Mycobacterium tuberculosis, H37RV, Table S2, H37Rv, read-out: MIC
[10] = Mycobacterium tuberculosis, H37RV, Table 1, replicating, read-out: H37Rv MIC
[11] = Mycobacterium tuberculosis, H37RV, Table 2, strain H37Rv, read-out: MIC

Sequence of wild-type PyrG (P9WHK7 whole entry): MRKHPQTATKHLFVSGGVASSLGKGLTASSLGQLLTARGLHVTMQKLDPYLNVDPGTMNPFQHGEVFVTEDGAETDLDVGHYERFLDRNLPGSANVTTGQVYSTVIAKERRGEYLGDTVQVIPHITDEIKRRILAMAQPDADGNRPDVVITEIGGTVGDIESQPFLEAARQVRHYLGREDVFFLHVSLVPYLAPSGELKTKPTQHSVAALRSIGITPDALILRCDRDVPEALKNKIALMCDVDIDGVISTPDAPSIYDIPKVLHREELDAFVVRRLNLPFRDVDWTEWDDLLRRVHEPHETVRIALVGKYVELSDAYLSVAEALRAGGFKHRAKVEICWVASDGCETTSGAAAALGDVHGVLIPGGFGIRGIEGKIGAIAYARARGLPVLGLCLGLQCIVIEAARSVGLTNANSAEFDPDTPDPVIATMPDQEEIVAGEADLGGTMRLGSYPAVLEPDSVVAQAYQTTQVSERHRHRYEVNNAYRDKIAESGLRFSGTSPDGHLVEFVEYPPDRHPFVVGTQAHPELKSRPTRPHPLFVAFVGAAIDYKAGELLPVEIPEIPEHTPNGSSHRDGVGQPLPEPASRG
T1 sequence (P9WNF9 whole entry): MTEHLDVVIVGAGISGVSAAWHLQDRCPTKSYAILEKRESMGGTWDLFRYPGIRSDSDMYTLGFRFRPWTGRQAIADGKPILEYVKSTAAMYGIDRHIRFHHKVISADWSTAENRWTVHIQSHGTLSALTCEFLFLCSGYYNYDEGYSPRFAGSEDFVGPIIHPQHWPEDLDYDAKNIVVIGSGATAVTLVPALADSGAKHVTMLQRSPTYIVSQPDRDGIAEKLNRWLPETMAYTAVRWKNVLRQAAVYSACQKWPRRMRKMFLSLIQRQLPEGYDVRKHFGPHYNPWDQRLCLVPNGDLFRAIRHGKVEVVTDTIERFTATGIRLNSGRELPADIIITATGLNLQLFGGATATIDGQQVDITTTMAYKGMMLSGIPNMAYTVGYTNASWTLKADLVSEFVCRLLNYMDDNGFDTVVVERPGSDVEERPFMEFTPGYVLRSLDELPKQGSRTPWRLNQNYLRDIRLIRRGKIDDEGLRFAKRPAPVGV
Sequence of PyrG (P9WHK7 whole entry): as the sequence (P9WHK7 whole entry) above

SMILES: CC(=O)Cc1ccccc1 [phenylacetone]
- Km (EthA [1]; comparison values, ref Fraaije et al., 2004): 60 µM
- kcat (EthA substrate) (EthA [1]; ref Fraaije et al., 2004): 0.027 s⁻¹

SMILES: COc1ccc(NC(=O)c2cc([N+](=O)[O-])c(C)s2)cc1OC [compound 11326054]
- MIC (M. tuberculosis H37Rv [2]; [7]): 0.25 µg/mL (≈ 0.776 µM)
- MIC (M. tuberculosis H37Rv [2]; [8]): 0.25 µg/mL (≈ 0.776 µM)
- kcat (compound as EthA substrate) (EthA [3]): 0.0163 ± 0.0005 s⁻¹
- melting point: 200 to 202 °C

SMILES: O=C(CCc1ccccc1)NC(=O)Nc1ccc(N2CCCCC2)cc1 [3-phenyl-N-[(4-piperidin-1-ylphenyl)carbamoyl]propanamide]
- effect on PyrG enzymatic activity (wild-type PyrG): no effect

SMILES: CC1=CC=C(C(=O)Nc2ccc([N+](=O)[O-])cc2)S1(=O)=O [compound 11426026]
- MIC (M. tuberculosis H37Rv [2]; [9]): 1 µg/mL (≈ 3.4 µM)
- MIC (M. tuberculosis H37Rv [2]; Mycobacterium tuberculosis, H37RV, Table S5, read-out: H37Rv MIC): 1 µg/mL (≈ 3.4 µM)
- % inhibition of wild-type PyrG (wild-type PyrG): 83.6 ± 3.8%
- effect on PyrG enzymatic activity (wild-type PyrG): inhibit; also recorded: higher degree of inhibition
- MIC (M. tuberculosis H37Ra): 4 µg/mL (≈ 13.6 µM)

SMILES: Cc1ccc(C(=O)Nc2ccc([N+](=O)[O-])cc2)s1 [compound 7947882, 5-methyl-N-(4-nitrophenyl)thiophene-2-carboxamide]
- MIC (M. tuberculosis H37Rv [2]; [7]): 0.5 µg/mL (≈ 1.91 µM)
- MIC (M. tuberculosis H37Rv [2]; [10]): 0.5 µg/mL (≈ 1.91 µM)
- MIC (M. tuberculosis H37Rv [2]; [11]): 0.5 µg/mL (≈ 1.91 µM)
- MIC (M. tuberculosis H37Rv [2]; [9]): 0.5 µg/mL (≈ 1.91 µM)
- MIC (M. tuberculosis H37Rv [2]; [8]): 0.5 µg/mL (≈ 1.91 µM)
- IC50 [4]: 2.5 µg/mL (≈ 9.53 µM)
- IC90 [4]: 10 µg/mL (≈ 38.1 µM)
- IC50 [5]: 0.625 µg/mL (≈ 2.38 µM)
- IC90 [5]: 1.25 µg/mL (≈ 4.77 µM)
- higher affinity for EthA than ETH (EthA [3]): ~10 fold
- effect on wild-type PyrG (wild-type PyrG): ineffective
- time in which PyrG lost full activity (PyrG): ≤ 4 h
- abundance of nucleotide intermediates (M. tuberculosis H37Rv [6]): substantial increase
- melting point: 178 to 180 °C
- cytotoxicity (HepG2): not cytotoxic
- cytotoxicity (A549): not cytotoxic
- cytotoxicity (RAW 264.7): not cytotoxic
- cytotoxicity (Huh7): not cytotoxic

SMILES: O=C(CCc1ccccc1)NC(=S)Nc1ccc(N2CCCCC2)cc1 [compound 7904688, 3-phenyl-N-[(4-piperidin-1-ylphenyl)carbamothioyl]propanamide]
- MIC (M. tuberculosis H37Rv [2]; [7]): 0.5 µg/mL (≈ 1.36 µM)
- MIC (M. tuberculosis H37Rv [2]; [10]): 0.5 µg/mL (≈ 1.36 µM)
- MIC (M. tuberculosis H37Rv [2]; [11]): 0.5 µg/mL (≈ 1.36 µM)
- IC50 [4]: 2.5 µg/mL (≈ 6.8 µM)
- IC90 [4]: 20 µg/mL (≈ 54.4 µM)
- IC50 [5]: 0.175 µg/mL (≈ 0.476 µM)
- IC90 [5]: 0.625 µg/mL (≈ 1.7 µM)
- higher affinity for EthA than ETH (EthA [3]): ~10 fold
- effect on wild-type PyrG (wild-type PyrG): ineffective
- loss of PyrG activity (PyrG): about 80%
- cytotoxicity (HepG2): not cytotoxic
- cytotoxicity (A549): not cytotoxic
- cytotoxicity (RAW 264.7): not cytotoxic
- cytotoxicity (Huh7): not cytotoxic

SMILES: CCc1cc(C(N)=S)ccn1 [ETH, ethionamide, reference compound]
- MIC (M. tuberculosis H37Rv [2]; Mycobacterium tuberculosis, H37RV): 1 µg/mL (≈ 6.02 µM)
- Km (EthA [1]): 340 µM

SMILES: Cc1ccc(C(=O)O)s1 [compound 11326028, 5-methylthiophene-2-carboxylic acid]
- MIC (M. tuberculosis H37Rv [2]; Figure 5, H37Rv): 0.128 µg/mL (≈ 0.9 µM)
- MIC (M. tuberculosis H37Rv [2]; [7]): 0.125 µg/mL (≈ 0.879 µM)
- MIC (M. tuberculosis H37Rv [2]; [8]): 0.128 µg/mL (≈ 0.9 µM)

SMILES: Cc1ccc(C(=O)Nc2ccc([N+](=O)[O-])cc2)[s+]1[O-] (centres unmarked) [M2]
- effect on PyrG enzymatic activity (wild-type PyrG): inhibit

Reference: publication PMC4521081, “Thiophenecarboxamide Derivatives Activated by EthA Kill Mycobacterium tuberculosis by Inhibiting the CTP Synthetase PyrG” (Chemistry & Biology, 2015)
